This note sets out measurements from patent US7632829B2, “Diazepan derivatives” (Hoffmann-La Roche Inc., priority 2006, dated 2009).

This experiment addresses T1, human chemokine receptor 2 isoform B (Homo sapiens, UniProt P41597).
T1 construct: host or cells: CHOK1-CCR2B-A5 (CHO-K1)
T1 sequence (P41597 1-360 isoform P41597-2): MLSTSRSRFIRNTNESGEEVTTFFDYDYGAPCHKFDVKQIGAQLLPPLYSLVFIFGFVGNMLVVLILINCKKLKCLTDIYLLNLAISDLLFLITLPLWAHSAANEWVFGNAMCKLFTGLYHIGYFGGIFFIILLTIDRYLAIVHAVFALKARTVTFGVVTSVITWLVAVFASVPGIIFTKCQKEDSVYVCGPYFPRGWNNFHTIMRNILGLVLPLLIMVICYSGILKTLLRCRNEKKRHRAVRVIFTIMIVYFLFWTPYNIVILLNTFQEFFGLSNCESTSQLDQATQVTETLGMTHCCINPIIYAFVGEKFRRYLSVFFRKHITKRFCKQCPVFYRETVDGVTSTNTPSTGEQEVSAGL
Put plainly: Calcium mobilization assay (FLIPR, CHOK1-CCR2B-A5 cells, 20 nM MCP-1). As to conditions: Ca mobilisation assay, CCR2, antagonist activity vs 20 nM MCP-1. Format: cell-based. The procedure, abridged:
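Antagonism read as IC50 against 20 nM MCP-1-evoked calcium rise (peak minus baseline Fluo-4 signal, FLIPR) in CCR2B-overexpressing CHO-K1 cells. Compounds were preincubated 20-30 min at 30 °C, with agonist activity recorded for 80 s on addition.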
(Calcium assays in cells follow changes in intracellular calcium, usually with a dye or a luminescent sensor.)
Usually IC50 stands for the concentration needed to halve the response being measured. Turning to `O=C(C=Cc1ccc(Cl)c(Cl)c1)N1CCC(=O)N(CCCCN2CCC(O)C(F)C2)CC1` (mixture of isomers) [Example 434, (rac,trans)-1-[(E)-3-(3,4-Dichloro-phenyl)-acryloyl]-4-[4-(3-fluoro-4-hydroxy-piperidin-1-yl)-butyl]-[1,4]diazepan-5-one], the IC50 came out at 140 nM.

As for `C[C@]1(CO)CCN(CCCN2CCN(C(=O)/C=C/c3ccc(Cl)c(Cl)c3)CCC2=O)C[C@H]1O` (racemic) [Example 270, (rac,cis)-1-[(E)-3-(3,4-Dichloro-phenyl)-acryloyl]-4-[3-(3-hydroxy-4-hydroxymethyl-4-methyl-piperidin-1-yl)-propyl]-[1,4]diazepan-5-one], the IC50 is 10 nM.

For `C[C@@H]1CCN(CC(O)CN2CCN(C(=O)/C=C/c3ccc(Cl)c(Cl)c3)CCC2=O)C[C@H]1O` (mixture of isomers) [Example 315, (rac)-1-[(E)-3-(3,4-Dichloro-phenyl)-acryloyl]-4-[2-hydroxy-3-(trans-3-hydroxy-4-methyl-piperidin-1-yl)-propyl]-[1,4]diazepan-5-one], the half-inhibitory concentration (IC50) stood at 717 nM.

Turning to `CC1(CO)CCN(CC(O)CN2CCN(C(=O)C=Cc3ccc(Cl)c(Cl)c3)CCC2=O)CC1O` (single isomer, unassigned) [Example 330], the IC50 is 6 nM.

As for `CC1(C)CN(CC(O)CN2CCN(C(=O)/C=C/c3ccc(Cl)c(Cl)c3)CCC2=O)CCC1O` (racemic) [Example 324], the IC50 is 215 nM.

For `O=C(O)C(CCCN1CCCCC1)N1CCN(C(=O)/C=C/c2ccc(Cl)c(Cl)c2)CCC1=O` (racemic) [Example 180, Lithium; (rac)-2-{4-[(E)-3-(3,4-dichloro-phenyl)-acryloyl]-7-oxo-[1,4]diazepan-1-yl}-5-piperidin-1-yl-pentanoate], the IC50 is 319 nM.

Take `CC1CCN(CCCN2CCN(C(=O)/C=C/c3ccc(Cl)c(Cl)c3)CCC2=O)CC1` [Example 50, 1-[(E)-3-(3,4-Dichloro-phenyl)-acryloyl]-4-[3-(4-methyl-piperidin-1-yl)-propyl]-[1,4]diazepan-5-one]: the IC50 was determined as 55 nM.

On to `C[C@H]1[C@H](O)CCCN1CC(O)CCN1CCN(C(=O)/C=C/c2ccc(Cl)c(Cl)c2)CCC1=O` (relative stereo) [Example 362], for which the IC50 amounted to 504 nM.

For the molecule `O=C(/C=C/c1ccc(Cl)c(F)c1)N1CCC(=O)N(CCCCN2CCC3(CC3)C(O)C2)CC1` (stereo not drawn) [Example 416, 1-[(E)-3-(4-Chloro-3-fluoro-phenyl)-acryloyl]-4-[4-((-)-4-hydroxy-6-aza-spiro[2.5]oct-6-yl)-butyl]-[1,4]diazepan-5-one], the IC50 was 11 nM.

On to `O=C(/C=C/c1ccc(Cl)c(Cl)c1)N1CCC(=O)N(CCCN2CCC(c3cc[nH]n3)CC2)CC1` [Example 57, 1-[(E)-3-(3,4-Dichloro-phenyl)-acryloyl]-4-{3-[4-(1H-pyrazol-3-yl)-piperidin-1-yl]-propyl}-[1,4]diazepan-5-one], for which the IC50 is 217 nM.

On to `CC1(CO)CCN(CCCCN2CCN(C(=O)/C=C/c3ccc(Cl)c(Cl)c3)CCC2=O)CC1` (racemic) [Example 459], for which the IC50 stood at 267 nM.

As to `O=C(/C=C/c1ccc(Cl)c(Cl)c1)N1CCC(=O)N(C[C@@H](O)CN2CC[C@@H](CO)[C@H](O)C2)CC1` (mixture of isomers) [Example 333, 1-[(E)-3-(3,4-Dichloro-phenyl)-acryloyl]-4-[(S)-2-hydroxy-3-(trans-3-hydroxy-4-hydroxymethyl-piperidin-1-yl)-propyl]-[1,4]diazepan-5-one], the 50% inhibitory concentration (IC50) was 301 nM.

With `CN(CCCN1CCN(C(=O)/C=C/c2ccc(Cl)c(Cl)c2)CCC1=O)C1CCCC1` [Example 37, 4-[-3-(Cyclopentyl-methyl-amino)-propyl]-1-[(E)-3-(3,4-dichloro-phenyl)-acryloyl]-[1,4]diazepan-5-one], the IC50 stood at 265 nM.

Turning to `O=C(/C=C/c1ccc(Cl)c(Cl)c1)N1CCC(=O)N(CCC(O)CN2CCC(CO)CC2)CC1` (racemic) [Example 379], the IC50 was found to be 1500 nM.

As for `O=C(/C=C/c1ccc(Cl)c(Cl)c1)N1CCC(=O)N(CC(O)CN2CCC(O)C3(CC3)C2)CC1` (racemic) [Example 317], the IC50 worked out at 528 nM.

`O=C(/C=C/c1ccc(F)c(Cl)c1)N1CCC(=O)N(C[C@@H](O)CN2CCC3(CC3)C(O)C2)CC1` (stereo partly drawn) [Example 336, 1-[(E)-3-(3-Chloro-4-fluoro-phenyl)-acryloyl]-4-[(S)-2-hydroxy-3-((−)-4-hydroxy-6-aza-spiro[2.5]oct-6-yl)-propyl]-[1,4]diazepan-5-one]: the half-maximal inhibitory concentration (IC50) came to 3 nM.

As to `O=C(C=Cc1ccc(Cl)c(Cl)c1)N1CCC(=O)N(CCCN2CCC(O)C(F)C2)CC1` (mixture of isomers) [Example 231, (rac,trans)-1-[(E)-3-(3,4-Dichloro-phenyl)-acryloyl]-4-[3-(3-fluoro-4-hydroxy-piperidin-1-yl)-propyl]-[1,4]diazepan-5-one], the IC50 stood at 218 nM.

Consider `O=C(/C=C/c1cccc(Cl)c1)N1CCC(=O)N(CCN2CCC(c3ccccc3)CC2)CC1` [Example 32, 1-[(E)-3-Chloro-phenyl-acryloyl]-4-{2-[4-phenyl-piperidin-1-yl]-ethyl}-[1,4]diazepan-5-one], for which the IC50 turned out to be 1470 nM.

Turning to `O=C(/C=C/c1cccc(Cl)c1)N1CCC(=O)N(CCCN2CCCCC2)CC1` [Example 188, 1-[(E)-3-(3-Chloro-phenyl)-acryloyl]-4-(3-piperidin-1-yl-propyl)-[1,4]diazepan-5-one], the IC50 is 1340 nM.

For the molecule `COCC1C(O)CCC(C)N1CCCCN1CCN(C(=O)C=Cc2ccc(Cl)c(Cl)c2)CCC1=O` (racemic) [Example 488, (rac,cis)-1-[(E)-3-(3,4-Dichloro-phenyl)-acryloyl]-4-[4-(3-hydroxy-2-methoxymethyl-6-methyl-piperidin-1-yl)-butyl]-[1,4]diazepan-5-one], the IC50 is 618 nM.

`COC(=O)NC1CCN(CCCN2CCN(C(=O)/C=C/c3ccc(Cl)c(Cl)c3)CCC2=O)CC1` [Example 244]: the IC50 amounted to 660 nM.

`CC1CN(CC(O)CN2CCN(C(=O)/C=C/c3ccc(Cl)c(Cl)c3)CCC2=O)CCC1O` (racemic) [Example 300]: the IC50 worked out at 981 nM.

For `O=C(/C=C/c1ccc(F)c(Cl)c1)N1CCC(=O)N(CCCCN2CCC(CO)CC2)CC1` [Example 386], the IC50 turned out to be 380 nM.

In the case of `O=C(/C=C/c1ccc(Cl)c(Cl)c1)N1CCC(=O)N(CC[C@@H](O)CN2CCCCC2)CC1` [Example 172, 1-[(E)-3-(3,4-Dichloro-phenyl)-acryloyl]-4-((R)-3-hydroxy-4-piperidin-1-yl-butyl)-[1,4]diazepan-5-one], the IC50 came out at 105 nM.

`O=C(C=Cc1ccc(F)c(Cl)c1)N1CCC(=O)N(CCCN2CCC(O)C(F)C2)CC1` (mixture of isomers) [Example 214, (rac,trans)-1-[(E)-3-(3-Chloro-4-fluoro-phenyl)-acryloyl]-4-[3-(3-fluoro-4-hydroxy-piperidin-1-yl)-propyl]-[1,4]diazepan-5-one]: the IC50 was 592 nM.

On to `O=C(/C=C/c1ccc2ccccc2c1)N1CCC(=O)N(CCCN2CCCCC2)CC1` [Example 157, 1-((E)-3-Naphthalen-2-yl-acryloyl)-4-(3-piperidin-1-yl-propyl)-[1,4]diazepan-5-one], for which the IC50 is 703 nM.

Turning to `CC1(CO)CCCN(CC(O)CN2CCN(C(=O)/C=C/c3ccc(Cl)c(Cl)c3)CCC2=O)C1` (racemic) [Example 305], the IC50 came out at 192 nM.

Consider `CC(=O)NC1CCCN(CCCCN2CCN(C(=O)/C=C/c3ccc(Cl)c(Cl)c3)CCC2=O)C1` (racemic) [Example 466], for which the IC50 is 389 nM.

With `O=C(/C=C/c1ccc(Cl)c(Cl)c1)N1CCC(=O)N(CCN2CCC(O)(c3cccnc3)CC2)CC1` [Example 99, 1-[(E)-3-(3,4-Dichloro-phenyl)-acryloyl]-4-[3-(4′-hydroxy-3′,4′,5′,6′-tetrahydro-2′H-[3,4′]bipyridinyl-1′-yl)-ethyl]-[1,4]diazepan-5-one], the 50% inhibitory concentration (IC50) turned out to be 1220 nM.

Turning to `O=C(/C=C/c1ccc(Cl)c(Cl)c1)N1CCC(=O)N(CCCCN2CCC3(CC3)C(O)C2)CC1` (racemic) [Example 456], the IC50 was 16 nM.

Take `O=C(/C=C/c1ccc(Cl)c(Cl)c1)N1CCC(=O)N(CC[C@H](O)CN2CCCCC2)CC1` [Example 178, 1-[(E)-3-(3,4-Dichloro-phenyl)-acryloyl]-4-((S)-3-hydroxy-4-piperidin-1-yl-butyl)-[1,4]diazepan-5-one]: the IC50 came to 201 nM.

`CC1CCC(O)CN1CCCCN1CCN(C(=O)/C=C/c2ccc(Cl)c(Cl)c2)CCC1=O` (racemic) [Example 487]: the half-inhibitory concentration (IC50) came to 14 nM.

Take `CC1(CO)CCCN(CCCN2CCN(C(=O)/C=C/c3ccc(Cl)c(Cl)c3)CCC2=O)C1` (racemic) [Example 248]: the half-inhibitory concentration (IC50) was found to be 226 nM.

For the molecule `O=C(/C=C/c1ccc(Cl)c(Cl)c1)N1CCC(=O)N(CCCCN2CC[C@@H](O)[C@H](O)C2)CC1` (racemic) [Example 165, 1-[(E)-3-(3,4-Dichloro-phenyl)-acryloyl]-4-[4-((3RS,4RS)-3,4-dihydroxy-piperidin-1-yl)-butyl]-[1,4]diazepan-5-one], the IC50 was found to be 345 nM.

With `O=C(/C=C/c1ccc(Cl)c(Cl)c1)N1CCC(=O)N(CCCN2CCC3(CC3)C(O)C2)CC1` (stereo not drawn) [Example 261], the IC50 amounted to 9 nM.

For the molecule `CC1(O)CCCN(CC(O)CN2CCN(C(=O)/C=C/c3ccc(Cl)c(Cl)c3)CCC2=O)C1` (racemic) [Example 303], the IC50 was 257 nM.
